{
  "source": "patent US20200155555A1",
  "about": "“VITAMIN RECEPTOR DRUG DELIVERY CONJUGATES FOR TREATING INFLAMMATION” (Endocyte, Inc., priority 2007, published 2020)",
  "key": {"[1]": {"experiment": "Plasma pharmacokinetics after a single i.v. or s.c. dose of EC0565", "conditions": "rats", "method": "The bioavailability of EC0565 after subcutaneous injection was measured. Female Lewis rats with rounded tip jugular vein catheters (Harlan) were fed regular rodent diet. The treated animals were given a single intravenous or subcutaneous dose of EC0565 at 2 μmol/kg. […] For subcutaneous administration (FIG. 52B), whole blood samples (300 μl) were collected from the animals at 1 min, 10 min, 30 min, 1 h, 2 h, 3 h, 4 h, 8 h, and 12 h post injection. The blood samples were placed into anti-coagulant tubes containing 1.7 mg/mL of K3-EDTA and 0.35 mg/mL of N-maleoyl-beta-alanine (0.35 mg/mL). Plasma samples were obtained by centrifugation for 3 min at ˜2,000 g and stored at −80° C. The amount of EC0565 and its released base drug (everolimus) were determined by HPLC using the EC0565 injection solution as the standard."}, "[2]": {"system": "rats with adjuvant-induced arthritis (AIA)", "experiment": "Adjuvant-induced arthritis (AIA) model", "method": "Female Lewis rats were fed a folate-deficient diet (Harlan Teklad, Indianapolis, Ind.) for 9-10 days prior to arthritis induction. The adjuvant-induced arthritis (AIA) was induced by intradermal inoculation (at the base of tail) of 0.5 mg of heat-killed Mycobacteria butyricum (BD Diagnostic Systems, Sparks, Md.) in 100 μL light mineral oil (Sigma). Ten days after arthritis induction, paw edema in rats was assessed using a modified arthritis scoring system: 0=no arthritis; 1=swelling in one type of joint; 2=swelling in two types of joint; 3=swelling in three types of joint; 4=swelling of the entire paw. A total score for each rat is calculated by summarizing the scores for each of the four paws, giving a maximum score of 16 for each rat. On Day 10 post arthritis induction, rats with a total arthritis score of ≥2 were removed from the study and the remaining rats were distributed evenly across the control and treatment groups (n=5 for all groups except that n=2-3 for healthy controls). All treatments started on Day 10 unless mentioned otherwise. […]\nRats with adjuvant arthritis were treated subcutaneously with EC0932 (250 nmol/kg) in the absence or presence of 500-fold excess of EC0923 (125 μmol/kg) on days 10, 13, 17, and 20 post arthritis induction. The animals in the healthy and arthritis control groups were left untreated. The arthritis scores and animal body weights were recorded three times a week (see FIG. 19A, B). At the completion of study (day 24), the rats were euthanized by CO2 asphyxiation and processed for paw and spleen weights (see FIG. 20A, B).\nThe rat adjuvant induced arthritis (AIA) model resembles the characteristics of RA in humans and has been widely used to study the impact of novel anti-inflammatory agents."}, "[3]": {"system": "Proliferating Cell Nuclear Antigen (PCNA) in RAW264.7 cells", "experiment": "Western blot for proliferating cell nuclear antigen", "type": "cell-based, murine", "conditions": "1-1000 nM; EC0565 2 h treatment and 48 h chase, everolimus 48 h"}, "[4]": {"molecular_target": "T1, DHFR (Mus musculus, UniProt P00375)", "T1 construct": "endogenous in cells; host or cells: RAW264.7 cells", "T1 sequence (P00375 1-187)": "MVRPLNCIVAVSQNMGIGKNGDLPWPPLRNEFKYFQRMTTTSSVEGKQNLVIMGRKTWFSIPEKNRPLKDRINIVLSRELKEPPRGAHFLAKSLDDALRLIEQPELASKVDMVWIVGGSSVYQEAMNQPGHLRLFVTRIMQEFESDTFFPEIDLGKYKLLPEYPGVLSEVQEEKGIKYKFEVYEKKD", "experiment": "DHFR activity in lysate of treated RAW264.7 cells", "type": "cell-based, murine", "conditions": "excess folic acid alone, 10 μM", "method": "RAW264.7 cells were treated with vehicle (medium), EC0746 (100 nM) without or with 100-fold excess free folate, aminopterin (AMT, 100 nM), methotrexate (MTX, 100 nM), or excess free folate alone (10 μM). After 1 h incubation, the drug-containing media were replaced with fresh medium and the cells were allowed to incubate further for 24 h. At the end of incubation, the cells were lysed and the DHFR activity in cell lysates was measured using a commercial DHFR assay kit (Sigma-Aldrich, Saint Louis, Mo.)."}, "[5]": {"conditions": "oral everolimus 500 nmol/kg tiw"}},
  "data": [
    {"smiles": "CO[C@H]1C[C@@H]2CC[C@@H](C)[C@@](O)(O2)C(=O)C(=O)N2CCCC[C@H]2C(=O)O[C@H]([C@H](C)C[C@@H]2CC[C@@H](OCCOC(=O)OCCSSC[C@H](NC(=O)[C@H](CCC(=O)NC[C@H](O)[C@@H](O)[C@H](O)[C@H](O)CO)NC(=O)[C@H](CCC(=O)O)NC(=O)[C@H](CCC(=O)NC[C@H](O)[C@@H](O)[C@H](O)[C@H](O)CO)NC(=O)[C@H](CCC(=O)O)NC(=O)[C@H](CCC(=O)NC[C@H](O)[C@@H](O)[C@H](O)[C@H](O)CO)NC(=O)CC[C@H](NC(=O)c3ccc(NCc4cnc5nc(N)[nH]c(=O)c5n4)cc3)C(=O)O)C(=O)O)[C@H](OC)C2)CC(=O)[C@H](C)/C=C(\\C)[C@@H](O)[C@@H](OC)C(=O)[C@H](C)C[C@H](C)/C=C/C=C/C=C/1C", "note": "[EC0565, Everolimus-EC0488 Conjugate]", "values": [
      {"measurement": "free drug (everolimus) exposure/release in plasma, based on AUC", "setting": "[1]; single intravenous dose of EC0565, 2 μmol/kg", "value": "approximately 18%"},
      {"measurement": "free drug (everolimus) exposure/release in plasma, based on AUC", "setting": "[1]; single subcutaneous dose of EC0565, 2 μmol/kg", "value": "~17", "unit": "%"}
    ]},
    {"smiles": "CO[C@H]1C[C@@H]2CC[C@@H](C)[C@@](O)(O2)C(=O)C(=O)N2CCCC[C@H]2C(=O)O[C@H]([C@H](C)C[C@@H]2CC[C@@H](OCCO)[C@H](OC)C2)CC(=O)[C@H](C)/C=C(\\C)[C@@H](O)[C@@H](OC)C(=O)[C@H](C)C[C@H](C)/C=C/C=C/C=C/1C", "note": "[everolimus]", "values": [
      {"measurement": "spleen weight compared to arthritic controls", "setting": "[2]; 500 nmol/kg 3 times a week, EC0565 sc, everolimus oral", "value": "significantly decreased spleen weight compared to arthritic controls"},
      {"measurement": "decrease in dorsal to ventral paw thickness", "setting": "[2]; [5]", "value": 44, "unit": "%"},
      {"measurement": "decrease in summed histological score", "setting": "[2]; [5]", "value": 52, "unit": "%"},
      {"measurement": "reductions in all scored histology parameters vs untreated controls", "setting": "[2]; [5]", "value": "44-61%"},
      {"measurement": "effect on PCNA in synchronized RAW264.7 cells", "setting": "[3]", "value": "inhibited PCNA activities"}
    ]},
    {"smiles": "Nc1nc2ncc(CNc3ccc(C(=O)N[C@@H](CCC(=O)O)C(=O)O)cc3)nc2c(=O)[nH]1", "note": "[folic acid]", "values": [
      {"measurement": "effect on DHFR activity in RAW264.7 cells", "setting": "[4]", "value": "did not have any impact"}
    ]}
  ]
}
